Laboratory results taken from article PMC3088504 (Bioorganic & medicinal chemistry, 2009).

Biological target: H1 receptor (Homo sapiens, UniProt P35367)
Test: H1 competitive radioligand binding assay
Settings: H1 versus 5-HT2A, from Ki values

Chain of H1 receptor (P35367 whole entry): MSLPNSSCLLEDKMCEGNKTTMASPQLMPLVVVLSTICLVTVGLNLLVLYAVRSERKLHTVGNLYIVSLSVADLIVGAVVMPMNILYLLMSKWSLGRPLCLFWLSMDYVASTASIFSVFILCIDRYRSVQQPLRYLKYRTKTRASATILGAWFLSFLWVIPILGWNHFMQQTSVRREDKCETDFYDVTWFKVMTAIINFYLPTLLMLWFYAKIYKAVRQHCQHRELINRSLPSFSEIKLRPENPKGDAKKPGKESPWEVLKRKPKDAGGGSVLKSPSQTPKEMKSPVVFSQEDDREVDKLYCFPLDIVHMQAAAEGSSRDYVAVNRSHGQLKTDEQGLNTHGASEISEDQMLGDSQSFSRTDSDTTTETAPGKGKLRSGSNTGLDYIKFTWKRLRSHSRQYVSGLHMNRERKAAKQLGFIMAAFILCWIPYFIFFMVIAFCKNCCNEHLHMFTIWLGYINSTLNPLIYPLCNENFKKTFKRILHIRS

In the case of `CN(C)CCCC1c2ccccc2Cc2ccccc21` [Compound 3c], the “selectivity for the H1 receptor” value is reported as 44 fold.
